What was measured:
[1] = system: OCI-Ly3; assay: Growth inhibition of human OCI-LY3 cells at 1 uM after 48 hrs by MTS assay relative to control; assay type: functional; details: OCI-Ly3, 48 h, read-out: GI
[2] = system: OCI-Ly10; assay: Growth inhibition of human OCI-LY10 cells at 1 uM after 48 hrs by MTS assay relative to control; assay type: functional; details: OCI-Ly10, 48 h, read-out: GI
[3] = target: DNA (cytosine-5)-methyltransferase 1 (Homo sapiens, UniProt P26358); assay: Inhibition of human DNMT1 using polydeoxyinosine polydeoxycytosine DNA as substrate after 15 mins in presence of SAM by TR-FRET assay
[4] = Growth inhibition of human CEMO1 cells at 1 uM after 48 hrs by MTS assay relative to control; assay type: functional; details: read-out: GI
[5] = Growth inhibition of human LAL-CUN-2 cells at 1 uM after 48 hrs by MTS assay relative to control; assay type: functional; details: read-out: GI
[6] = target: T1, Histone-lysine N-methyltransferase EHMT2 (Homo sapiens, UniProt Q96KQ7); assay: Inhibition of human G9a using biotinylated-H3K9 peptide as substrate after 1 hr in presence of SAM by TR-FRET assay
T1 sequence (Q96KQ7 whole entry): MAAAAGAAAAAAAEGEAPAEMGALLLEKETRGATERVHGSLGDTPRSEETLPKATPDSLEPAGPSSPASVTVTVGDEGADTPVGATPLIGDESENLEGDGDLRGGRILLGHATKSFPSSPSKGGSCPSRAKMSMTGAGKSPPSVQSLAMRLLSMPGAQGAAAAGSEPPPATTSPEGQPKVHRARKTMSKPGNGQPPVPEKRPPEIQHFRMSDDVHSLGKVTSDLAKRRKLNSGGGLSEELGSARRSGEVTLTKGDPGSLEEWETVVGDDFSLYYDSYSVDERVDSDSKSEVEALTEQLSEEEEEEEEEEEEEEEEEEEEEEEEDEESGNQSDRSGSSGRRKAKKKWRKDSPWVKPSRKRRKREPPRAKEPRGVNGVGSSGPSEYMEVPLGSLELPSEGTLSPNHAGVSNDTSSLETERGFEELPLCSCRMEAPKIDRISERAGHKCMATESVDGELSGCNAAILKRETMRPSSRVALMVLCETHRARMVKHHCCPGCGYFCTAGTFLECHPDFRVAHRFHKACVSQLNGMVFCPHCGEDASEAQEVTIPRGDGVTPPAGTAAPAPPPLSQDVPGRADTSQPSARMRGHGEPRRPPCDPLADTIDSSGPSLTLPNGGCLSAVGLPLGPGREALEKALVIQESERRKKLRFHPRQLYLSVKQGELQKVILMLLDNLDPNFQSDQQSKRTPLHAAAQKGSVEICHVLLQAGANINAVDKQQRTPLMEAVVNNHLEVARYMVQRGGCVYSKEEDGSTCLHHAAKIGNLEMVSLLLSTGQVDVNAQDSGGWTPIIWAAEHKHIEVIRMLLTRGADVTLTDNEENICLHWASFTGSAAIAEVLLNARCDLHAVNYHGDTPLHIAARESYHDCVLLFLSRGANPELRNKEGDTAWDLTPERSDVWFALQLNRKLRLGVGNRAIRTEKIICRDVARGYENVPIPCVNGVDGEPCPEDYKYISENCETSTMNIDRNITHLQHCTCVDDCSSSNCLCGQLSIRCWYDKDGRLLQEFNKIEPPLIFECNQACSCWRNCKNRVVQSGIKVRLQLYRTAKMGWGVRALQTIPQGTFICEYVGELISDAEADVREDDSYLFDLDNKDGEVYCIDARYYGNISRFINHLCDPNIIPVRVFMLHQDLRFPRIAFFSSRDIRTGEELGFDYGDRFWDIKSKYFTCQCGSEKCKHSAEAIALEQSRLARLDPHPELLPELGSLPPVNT

[7] = Permeability of the compound at 50 uM after 18 hrs by PAMPA; assay type: ADME; details: read-out: permeability
[8] = system: MV4-11; assay: Growth inhibition of human MV4-11 cells after 48 hrs by MTS assay; assay type: functional; details: MV4-11, 48 h
[9] = system: THLE-2; assay: Growth inhibition of human THLE2 cells after 72 hrs by MTS assay; assay type: cell-based; details: thle-2, 72 h
[10] = Growth inhibition of human CEMO1 cells after 48 hrs by MTS assay; assay type: functional
[11] = system: OCI-Ly10; assay: Growth inhibition of human OCI-LY10 cells after 48 hrs by MTS assay; assay type: functional; details: OCI-Ly10, 48 h
[12] = system: OCI-Ly3; assay: Growth inhibition of human OCI-LY3 cells after 48 hrs by MTS assay; assay type: functional; details: OCI-Ly3, 48 h
[13] = Growth inhibition of human LAL-CUN-2 cells after 48 hrs by MTS assay; assay type: functional

Sequence of DNA (cytosine-5)-methyltransferase 1 (P26358 whole entry): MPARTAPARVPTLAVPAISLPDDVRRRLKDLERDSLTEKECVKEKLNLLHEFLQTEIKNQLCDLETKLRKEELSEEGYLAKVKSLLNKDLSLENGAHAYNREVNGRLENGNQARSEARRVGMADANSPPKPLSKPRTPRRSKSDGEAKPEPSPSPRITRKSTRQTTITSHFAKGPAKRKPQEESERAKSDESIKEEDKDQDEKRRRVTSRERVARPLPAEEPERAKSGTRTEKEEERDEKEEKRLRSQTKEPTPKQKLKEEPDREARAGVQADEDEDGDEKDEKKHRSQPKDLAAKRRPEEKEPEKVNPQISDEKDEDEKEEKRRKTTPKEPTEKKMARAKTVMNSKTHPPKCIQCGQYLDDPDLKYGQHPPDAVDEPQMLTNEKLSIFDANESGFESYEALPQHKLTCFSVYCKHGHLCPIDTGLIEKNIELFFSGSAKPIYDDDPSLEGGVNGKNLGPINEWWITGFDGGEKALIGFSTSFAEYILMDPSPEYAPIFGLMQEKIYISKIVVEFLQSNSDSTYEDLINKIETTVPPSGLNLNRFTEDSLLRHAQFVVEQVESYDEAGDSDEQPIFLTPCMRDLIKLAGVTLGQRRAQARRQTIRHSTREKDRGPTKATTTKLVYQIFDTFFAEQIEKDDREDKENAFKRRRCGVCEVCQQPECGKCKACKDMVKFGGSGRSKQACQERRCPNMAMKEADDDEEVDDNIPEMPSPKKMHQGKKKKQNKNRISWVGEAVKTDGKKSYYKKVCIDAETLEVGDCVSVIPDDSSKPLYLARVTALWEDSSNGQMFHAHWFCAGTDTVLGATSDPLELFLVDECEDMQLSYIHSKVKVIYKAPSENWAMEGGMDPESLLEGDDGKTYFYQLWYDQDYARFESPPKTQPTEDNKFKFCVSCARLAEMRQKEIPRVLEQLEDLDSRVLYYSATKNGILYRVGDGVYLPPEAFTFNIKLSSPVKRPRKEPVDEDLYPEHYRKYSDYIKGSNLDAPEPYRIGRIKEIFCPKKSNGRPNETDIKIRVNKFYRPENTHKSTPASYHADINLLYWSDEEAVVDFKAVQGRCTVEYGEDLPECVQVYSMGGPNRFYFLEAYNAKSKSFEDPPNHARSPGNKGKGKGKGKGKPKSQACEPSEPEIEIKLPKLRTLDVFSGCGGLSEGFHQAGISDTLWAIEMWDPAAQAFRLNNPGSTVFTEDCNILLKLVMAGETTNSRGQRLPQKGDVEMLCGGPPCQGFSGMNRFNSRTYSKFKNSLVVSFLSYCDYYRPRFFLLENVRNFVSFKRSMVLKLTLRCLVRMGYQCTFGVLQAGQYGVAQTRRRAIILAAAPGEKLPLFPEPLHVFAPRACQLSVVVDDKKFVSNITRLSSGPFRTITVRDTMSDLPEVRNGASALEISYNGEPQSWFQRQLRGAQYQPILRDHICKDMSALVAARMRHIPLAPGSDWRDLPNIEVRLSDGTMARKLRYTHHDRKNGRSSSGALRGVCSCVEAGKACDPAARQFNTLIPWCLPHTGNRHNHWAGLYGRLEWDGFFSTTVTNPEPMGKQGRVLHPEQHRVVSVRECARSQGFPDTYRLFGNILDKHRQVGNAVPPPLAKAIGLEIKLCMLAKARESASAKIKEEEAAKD

COc1cc2c(NC3CCN(C)CC3)cc(-c3ccc(CO)o3)nc2cc1OCCCN1CCCC1
inhibition of growth at 1 µM [1]: 26%
inhibition of growth at 1 µM [2]: 1%
IC50 [3]: 759 nM
inhibition of growth at 1 µM [4]: 0%
inhibition of growth at 1 µM [5]: 19%
IC50 [6]: 15 nM
Papp at 18 h, 50 µM [7]: 0.05 ×10⁻⁶ cm/s

COc1cc2c(NC3CCN(C)CC3)cc(C3=CCOCC3)nc2cc1OCCCN1CCCC1
inhibition of growth at 1 µM [1]: 6%
inhibition of growth at 1 µM [2]: 16%
IC50 [3]: 957 nM
inhibition of growth at 1 µM [4]: 8%
inhibition of growth at 1 µM [5]: 0%
IC50 [6]: 12 nM
Papp at 18 h, 50 µM [7]: 0.37 ×10⁻⁶ cm/s

Nc1ncn([C@H]2C[C@H](O)[C@@H](CO)O2)c(=O)n1 [DECITABINE]
IC50 [3]: 30 nM

COc1cc2c(NC3CCN(C)CC3)cc(C3CCOCC3)nc2cc1OCCCN1CCCC1
inhibition of growth at 1 µM [1]: 0%
inhibition of growth at 1 µM [2]: 3%
IC50 [3]: 4420 nM
inhibition of growth at 1 µM [4]: 20%
inhibition of growth at 1 µM [5]: 6%
IC50 [6]: 17 nM
Papp at 18 h, 50 µM [7]: 0.22 ×10⁻⁶ cm/s

COc1cc2c(NC3CCN(C)CC3)cc(-c3ccnn3C)nc2cc1OCCCN1CCCC1
IC50 [3]: > 10000 nM
IC50 [6]: 1080 nM
Papp at 18 h, 50 µM [7]: 0.09 ×10⁻⁶ cm/s

COc1cc2c(NC3CCN(C)CC3)cc(C3CCCCC3)nc2cc1OCCCN1CCCC1
IC50 [3]: 497 nM
inhibition of growth at 1 µM [4]: 20%
GI50 [8]: > 10000 nM
LC50 [9]: 34800 nM
IC50 [6]: 2 nM
Papp at 18 h, 50 µM [7]: 1.98 ×10⁻⁶ cm/s

COc1cc2c(NC3CCN(C)CC3)cc(-c3ccccc3C)nc2cc1OCCCN1CCCC1
IC50 [3]: 582 nM
IC50 [6]: 52 nM

COc1cc2c(NC3CCN(C)CC3)cc(-c3ccn(C)n3)nc2cc1OCCCN1CCCC1
inhibition of growth at 1 µM [1]: 16%
inhibition of growth at 1 µM [2]: 0%
IC50 [3]: 969 nM
inhibition of growth at 1 µM [4]: 10%
inhibition of growth at 1 µM [5]: 16%
IC50 [6]: 44 nM

COc1cc2c(NC3CCN(C)CC3)cc(-c3ccc(C)s3)nc2cc1OCCCN1CCCC1
inhibition of growth at 1 µM [1]: 21%
inhibition of growth at 1 µM [2]: 42%
IC50 [3]: 230 nM
GI50 [8]: 3100 nM
LC50 [9]: 4060 nM
IC50 [6]: 43 nM
GI50 [10]: 555 nM
Papp at 18 h, 50 µM [7]: 2.91 ×10⁻⁶ cm/s

COc1cc2c(NC3CCN(C)CC3)nc(-c3ccc(C)o3)nc2cc1OCCCN1CCCC1
IC50 [3]: 2250 nM
IC50 [6]: 336 nM

COc1cc2c(NC3CCN(C)CC3)cc(-c3ccc(C)[nH]3)nc2cc1OCCCN1CCCC1
IC50 [3]: 232 nM
GI50 [11]: 915 nM
GI50 [12]: 896 nM
LC50 [9]: 7680 nM
inhibition of growth at 1 µM [5]: 12%
IC50 [6]: 0.5 nM
GI50 [10]: 1650 nM

COc1cc2c(NC3CCN(C)CC3)cc(-c3ccc(-c4ccccc4)o3)nc2cc1OCCCN1CCCC1
IC50 [3]: 1050 nM
IC50 [6]: 2720 nM

COc1cc2c(NC3CCN(C)CC3)cc(-c3ccc(CN(C)C)o3)nc2cc1OCCCN1CCCC1
IC50 [3]: 1270 nM
IC50 [6]: 148 nM

COc1cc2c(NC3CCN(C)CC3)cc(-c3cc4ccccc4o3)nc2cc1OCCCN1CCCC1
IC50 [3]: 1070 nM
IC50 [6]: 3140 nM

COc1cc2c(NC3CCN(C)CC3)cc(-c3cccnc3)nc2cc1OCCCN1CCCC1
inhibition of growth at 1 µM [1]: 12%
inhibition of growth at 1 µM [2]: 17%
IC50 [3]: 1410 nM
inhibition of growth at 1 µM [4]: 0%
inhibition of growth at 1 µM [5]: 16%
IC50 [6]: 40 nM
Papp at 18 h, 50 µM [7]: 0.22 ×10⁻⁶ cm/s

COc1cc2c(NC3CCN(C)CC3)cc(-c3ccc(C#N)o3)nc2cc1OCCCN1CCCC1
IC50 [3]: 1600 nM
IC50 [6]: 264 nM

CCNCc1ccc(-c2cc(NC3CCN(C)CC3)c3cc(OC)c(OCCCN4CCCC4)cc3n2)o1
inhibition of growth at 1 µM [1]: 0%
inhibition of growth at 1 µM [2]: 0%
IC50 [3]: 618 nM
inhibition of growth at 1 µM [4]: 0%
inhibition of growth at 1 µM [5]: 3%
IC50 [6]: 48 nM
Papp at 18 h, 50 µM [7]: 0.13 ×10⁻⁶ cm/s

COc1cc2c(NC3CCN(C)CC3)cc(C3=CCCCC3)nc2cc1OCCCN1CCCC1
IC50 [3]: 494 nM
GI50 [13]: 4290 nM
LC50 [9]: 7580 nM
IC50 [6]: 6 nM
GI50 [10]: 1180 nM
Papp at 18 h, 50 µM [7]: 2.09 ×10⁻⁶ cm/s

COc1cc2c(NC3CCNCC3)cc(-c3ccc(C)o3)nc2cc1OCCCN1CCCC1
IC50 [3]: 137 nM
GI50 [13]: > 5000 nM
GI50 [11]: > 4000 nM
GI50 [12]: 1270 nM
LC50 [9]: 8850 nM
IC50 [6]: 6 nM
GI50 [10]: 1980 nM
Papp at 18 h, 50 µM [7]: 0.2 ×10⁻⁶ cm/s

COc1cc2c(NC3CCN(C)CC3)cc(C3CCC(C)O3)nc2cc1OCCCN1CCCC1 (stereo unspecified)
IC50 [3]: 1370 nM
IC50 [6]: 27 nM

COc1cc2c(NC3CCN(C)CC3)cc(-c3cc[nH]c(=O)c3)nc2cc1OCCCN1CCCC1
IC50 [3]: 1250 nM
IC50 [6]: 142 nM

CCc1ccc(-c2cc(NC3CCN(C4CC4)CC3)c3cc(OC)c(OCCCN4CCCC4)cc3n2)o1
IC50 [3]: 274 nM
GI50 [8]: 3510 nM
GI50 [11]: 236 nM
GI50 [12]: 1560 nM
LC50 [9]: 703 nM
IC50 [6]: 24 nM
GI50 [10]: 917 nM
Papp at 18 h, 50 µM [7]: 5.56 ×10⁻⁶ cm/s

COc1cc(NC2CCN(C)CC2)c2cc(OC)c(OCCCN3CCCC3)cc2n1
IC50 [3]: 2290 nM
inhibition of growth at 1 µM [4]: 1%
IC50 [6]: 136 nM

CCc1ccc(-c2cc(NC3CCN(C(C)C)CC3)c3cc(OC)c(OCCCN4CCCC4)cc3n2)o1
IC50 [3]: 284 nM
GI50 [8]: 971 nM
LC50 [9]: 1720 nM
IC50 [6]: 3 nM
GI50 [10]: 441 nM
Papp at 18 h, 50 µM [7]: 3.83 ×10⁻⁶ cm/s

Nc1ncn([C@@H]2O[C@H](CO)[C@@H](O)[C@H]2O)c(=O)n1 [AZACITIDINE]
IC50 [3]: 300 nM

COc1cc2c(NC3CCN(C)CC3)cc(C(F)(F)F)nc2cc1OCCCN1CCCC1
IC50 [3]: > 10000 nM
inhibition of growth at 1 µM [4]: 24%
IC50 [6]: 637 nM

COc1cc2c(NC3CCN(C)CC3)cc(-c3ccccc3)nc2cc1OCCCN1CCCC1
IC50 [3]: 1050 nM
GI50 [8]: 2600 nM
GI50 [11]: 420 nM
GI50 [12]: 717 nM
LC50 [9]: 5620 nM
inhibition of growth at 1 µM [5]: 7%
IC50 [6]: 15 nM
GI50 [10]: 658 nM
Papp at 18 h, 50 µM [7]: 1.69 ×10⁻⁶ cm/s

— ChEMBL document CHEMBL4130634, “Discovery of Reversible DNA Methyltransferase and Lysine Methyltransferase G9a Inhibitors with Antitumoral in Vivo Efficacy” (J Med Chem, 2018)
